Measured values taken from patent US12018023B2 (NERVIANO MEDICAL SCIENCES S.R.L., priority 2018, dated 2024).
pIC50: −log10 of the molar value.

Assays:
[1] = target: T1, IDH1^R132C (Homo sapiens, UniProt O75874, R132C); assay: NADPH depletion assay, IDH1 R132C; assay type: biochemical
T1 construct: purchased not specified
Method: (§1) IDH mutated enzyme activity converting alpha-ketoglutarate to 2-hydroxyglutaric acid is measured using a NADPH depletion assay. In the assay the remaining cofactor is measured at the end of the reaction with the addition of a catalytic excess of diaphorase and resazurin, to generate a fluorescent signal in proportion to the amount of NADPH remaining. IDH1 WT enzyme as well as mutated isoforms IDH1^R132H, IDH1^R132C, and IDH^2R172K enzymes are commercially available proteins (see e.g. Sino Biological, Abcam, Active Motif or Creative BioMart).
(§2) IDH1^R132H homodimer enzyme are diluted to 8 nM, in 10 μL of Assay Buffer (150 mM NaCl, 50 mM Tris-HCl pH 7.6, 10 mM MgCl2, 0.001% Triton X-100, 4 mM β-mercaptoethanol); 0.2 uL of test compound, previously serially diluted 1 to 3, >10 experimental points from 1 mM in DMSO, is added and the mixture is incubated for 15 minutes at room temperature. The reaction is started with the addition of 10 μL of Substrate Mix (12 uM NADPH, 3.4 mM alpha-ketoglutarate in Assay Buffer) and the mixture is incubated for 60 minutes at room temperature. The reaction is terminated with the addition of 5 μl of Detection Buffer (100 μg/mL diaphorase, 30 μM resazurin, in IX Assay Buffer), and is incubated for 15 minute before reading on a ViewLux as platereader at Ex544/Em590.
Compounds are assayed for their activity against IDH1^R132C following the same assay as above with the following modifications: IDH1^R132C and alpha-ketoglutarate final concentrations in the Assay Buffer is 2 nM and 0.14 mM, respectively.

[2] = target: T2, IDH1^R132H homodimer enzyme (Homo sapiens, UniProt O75874, R132H); assay: NADPH depletion assay, IDH1 R132H; assay type: biochemical
T2 construct: purchased not specified
T2 sequence (O75874 whole entry R132H): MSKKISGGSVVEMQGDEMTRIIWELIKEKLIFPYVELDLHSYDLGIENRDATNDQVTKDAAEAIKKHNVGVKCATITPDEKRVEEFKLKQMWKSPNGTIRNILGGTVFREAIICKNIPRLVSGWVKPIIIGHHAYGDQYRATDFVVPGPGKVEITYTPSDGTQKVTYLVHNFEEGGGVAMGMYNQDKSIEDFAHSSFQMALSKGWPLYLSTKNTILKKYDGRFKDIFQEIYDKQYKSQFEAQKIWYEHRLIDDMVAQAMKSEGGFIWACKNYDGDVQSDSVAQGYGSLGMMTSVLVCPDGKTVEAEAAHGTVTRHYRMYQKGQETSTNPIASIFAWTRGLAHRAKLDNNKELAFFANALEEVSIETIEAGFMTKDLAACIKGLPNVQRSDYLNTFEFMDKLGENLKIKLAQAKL
Method: as §1, §2

T1 sequence (O75874 whole entry R132C): as the sequence (O75874 whole entry R132H) above, with H132C counted along it

For C[C@H](Nc1ncc2cc(F)c(=O)n(CC(C)(C)C)c2n1)c1ccc(CN2CCCC(F)(F)C2)cc1 [cpd 57, 2-{(S)-1-[4-(3,3-Difluoro-piperidin-1-ylmethyl)-phenyl]-ethylamino}-8-(2,2-dimethyl-propyl)-6-fluoro-8H-pyrido [2,3-d]pyrimidin-7-one], the pIC50 [1] was 6.68 and the pIC50 [2] was 6.27.

COC(=O)c1ccc([C@H](C)Nc2ncc3ccc(=O)n(Cc4ccc(F)cc4C(F)(F)F)c3n2)cc1 [cpd 8, methyl-4-[(1S)-1-({8-[4-fluoro-2-(trifluoromethyl)benzyl]-7-oxo-pyrido[2,3-d]pyrimidin-2-yl}amino)ethyl]benzoate] showed a pIC50 [1] of 5.86 and a pIC50 [2] of 5.61.

With CC(C)C(=O)N1CCC(Oc2ccc([C@H](C)Nc3ncc4ccc(=O)n([C@@H](C)C(C)C)c4n3)cc2)CC1 [cpd 160, 8-((S)-1,2-Dimethyl-propyl)-2-{(S)-1-[4-(1-isobutyryl-piperidin-4-yloxy)-phenyl]-ethylamino}-8H-pyrido[2,3-d]pyrimidin-7-one] the pIC50 [1] was 7.51 and the pIC50 [2] was 7.17.

Compound C=CC(=O)N1CCN(Cc2ccc([C@H](C)Nc3cc4c(ccc(=O)n4CC)cn3)cc2)CC1 [cpd 236, 7-{(S)-1-[4-(4-Acryloyl-piperazin-1-ylmethyl)-phenyl]-ethylamino}-1-ethyl-1H-[1,6]naphthyridin-2-one] has a pIC50 [1] of 6.98.

CC(C)[C@H](C)n1c(=O)ccc2cnc(N[C@@H](C)c3ccc(C4=CCN(C(=O)C5CC5)CC4)cn3)nc21 [cpd 195, 2-({(1S)-1-[1′-(cyclopropylcarbonyl)-1′,2′,3′,6′-tetrahydro-3,4′-bipyridin-6-yl]ethyl}amino)-8-[(2S)-3-methylbutan-2-yl]pyrido[2,3-d]pyrimidin-7(8H)-one] gave a pIC50 [1] of 6.74 and a pIC50 [2] of 6.23.

With C[C@H](Nc1ncc2ccc(=O)n(CC(C)(C)C)c2n1)c1ccc(CN2CC(F)(F)C2)cc1 [cpd 147, 2-{[(1S)-1-{4-[(3,3-difluoroazetidin-1-yl)methyl]phenyl}ethyl]amino}-8-(2,2-dimethylpropyl)pyrido[2,3-d]pyrimidin-7(8H)-one] the pIC50 [1] was 6.76 and the pIC50 [2] was 6.33.

For C[C@H](Nc1ncc2ccc(=O)n(CC(C)(C)C)c2n1)c1ccc(CN2CCOCC2)cc1F [cpd 153, 8-(2,2-dimethylpropyl)-2-({(1S)-1-[2-fluoro-4-(morpholin-4-ylmethyl)phenyl]ethyl}amino)pyrido[2,3-d]-pyrimidin-7(8H)-one], the pIC50 [1] was 7.39 and the pIC50 [2] was 6.65.

C[C@H](Nc1ncc2ccc(=O)n(CC(C)(C)CO)c2n1)c1ccc(CN2CCC(F)(F)CC2)cc1 [cpd 55, 2-{(S)-1-[4-(4,4-Difluoro-piperidin-1-ylmethyl)-phenyl]-ethylamino}-8-(3-hydroxy-2,2-dimethyl-propyl)-8H-pyrido[2,3-d]pyrimidin-7-one] showed a pIC50 [1] of 7.19 and a pIC50 [2] of 6.86.

Work on C[C@H](Nc1ncc2ccc(=O)n(CC(C)(C)C)c2n1)c1ccc(C(=O)NC2CCCC2)cc1 [cpd 80, N-cyclopentyl-4-[(1S)-1-{[8-(2,2-dimethylpropyl)-7-oxo-pyrido[2,3-d]pyrimidin-2-yl]amino}ethyl]benzamide] yielded a pIC50 [1] of 6.55 and a pIC50 [2] of 6.35.

CC(C)[C@H](C)n1c(=O)ccc2cnc(N[C@@H](C)c3ccc(-c4ccnc(C(F)(F)F)c4)cn3)nc21 [cpd 196, 8-[(2S)-3-methylbutan-2-yl]-2-({(1S)-1-[2′-(trifluoromethyl)-3,4′-bipyridin-6-yl]ethyl}amino)pyrido[2,3-d]pyrimidin-7(8H)-one] gave a pIC50 [1] of 6.85 and a pIC50 [2] of 6.02.

CCCC(C)(CO)Cn1c(=O)ccc2cnc(N[C@@H](C)c3ccc(CN4CCC(F)(F)CC4)cc3)nc21 (stereo partly drawn) [cpd 120, 2-{[(1S)-1-{4-[(4,4-difluoropiperidin-1-yl)methyl]phenyl}ethyl]amino}-8-[2-(hydroxymethyl)-2-methylpentyl]pyrido[2,3-d]pyrimidin-7(8H)-one] gave a pIC50 [1] of 6.97 and a pIC50 [2] of 6.66.

Work on C[C@H](Nc1ncc2ccc(=O)n(CC(C)(C)C(=O)O)c2n1)c1ccc2ccccc2c1 [cpd 121, 2,2-dimethyl-3-[2-{[(1S)-1-(naphthalen-2-yl)ethyl]amino}-7-oxopyrido[2,3-d]pyrimidin-8(7H)-yl]propanoic acid] yielded a pIC50 [1] of 5.79 and a pIC50 [2] of 5.41.

For CC(C)[C@H](C)n1c(=O)ccc2cnc(N[C@@H](C)c3ccc(-c4ccnc(F)c4)cn3)nc21 [cpd 197, 2-{[(1S)-1-(2′-fluoro-3,4′-bipyridin-6-yl)ethyl]amino}-8-[(2S)-3-methylbutan-2-yl]pyrido[2,3-d]pyrimidin-7(8H)-one], the pIC50 [1] was 6.39 and the pIC50 [2] was 5.63.

With C[C@H](Nc1ncc2ccc(=O)n(CC(C(F)(F)F)C(F)(F)F)c2n1)c1ccc(CN2CCC(F)(F)CC2)cc1 [cpd 108, 2-{[(1S)-1-{4-[(4,4-difluoropiperidin-1-yl)methyl]phenyl)ethyl]amino)-8-[3,3,3-trifluoro-2-(trifluoromethyl)propyl]pyrido[2,3-d]pyrimidin-7(8H)-one] the pIC50 [1] was 6.51 and the pIC50 [2] was 6.34.

In the case of CCC(=O)N1CCN(C(CC)c2ccc([C@H](C)Nc3ncc4ccc(=O)n(C(C)C)c4n3)cc2)CC1 (stereo partly drawn) [cpd 240, 2-{[(1S)-1-{4-[1-(4-propanoylpiperazin-1-yl)propyl]phenyl}ethyl]amino}-8-(propan-2-yl)pyrido[2,3-d]pyrimidin-7(8H)-one], the pIC50 [1] was 7.17.

Compound C[C@H](Nc1ncc2ccc(=O)n(CC(F)(F)F)c2n1)c1ccc(Cl)cc1 [cpd 18, 2-{[(1S)-1-(4-chlorophenyl)ethyl]amino}-8-(2,2,2-trifluoroethyl)pyrido[2,3-d]pyrimidin-7(8H)-one] has a pIC50 [1] of 5.81 and a pIC50 [2] of 5.39.

COC(=O)c1ccc([C@H](C)Nc2ncc3ccc(=O)n(CC(C)C)c3n2)cc1 [cpd 5, methyl 4-[(1S)-1-{[8-(2-methylpropyl)-7-oxo-pyrido[2,3-d]pyrimidin-2-yl]amino}ethyl]benzoate] showed a pIC50 [1] of 6.35 and a pIC50 [2] of 5.95.

With CC(Nc1ncc2ccc(=O)n(CC(C)(C)C)c2n1)c1ccc(C(=O)NC2CCC(F)(F)CC2)c(F)c1 (stereo not drawn) [cpd 84, N-(4,4-difluorocyclohexyl)-4-(1-{[8-(2,2-dimethylpropyl)-7-oxo-pyrido[2,3-d]pyrimidin-2-yl]amino}ethyl)-2-fluorobenzamide] the pIC50 [1] was 6.82 and the pIC50 [2] was 6.72.

Work on C[C@H](Nc1ncc2ccc(=O)n(CC(C)(C)C)c2n1)c1ccc(C(=O)NC2CCC(F)(F)CC2)cc1 [cpd 79, N-(4,4-difluorocyclohexyl)-4-[(1S)-1-{[8-(2,2-dimethylpropyl)-7-oxo-pyrido[2,3-d]pyrimidin-2-yl]amino}ethyl]benzamide] yielded a pIC50 [1] of 6.45 and a pIC50 [2] of 6.28.

CC(C)[C@H](C)n1c(=O)ccc2cnc(N[C@@H](C)c3ccc(N4CCOCC4)cc3)nc21 [cpd 173, 8-[(2S)-3-methylbutan-2-yl]-2-({(1S)-1-[4-(morpholin-4-yl)phenyl]ethyl}amino)pyrido[2,3-d]pyrimidin-7(8H)-one] showed a pIC50 [1] of 6.84 and a pIC50 [2] of 6.24.

For CC(C)[C@H](C)n1c(=O)ccc2cnc(N[C@@H](C)c3ccc(N4CCNCC4)nc3)nc21 [cpd 180, 8-[(2S)-3-methylbutan-2-yl]-2-({(1S)-1-[6-(piperazin-1-yl)pyridin-3-yl]ethyl}amino)pyrido[2,3-d]pyrimidin-7(8H)-one], the pIC50 [1] was 5.45.

C=CC(=O)N1CCN(Cc2ccc([C@H](C)Nc3ncc4ccc(=O)n(CC)c4n3)cc2)[C@H](C)C1 [cpd 207, 2-{[(1S)-1-(4-{[(2R)-4-acryloyl-2-methylpiperazin-1-yl]methyl}phenyl)ethyl]amino}-8-ethylpyrido[2,3-d]pyrimidin-7(8H)-one] was tested, and the pIC50 [1] was 6.20.

Work on CCn1c(=O)ccc2cnc(N[C@@H](C)c3ccc(CN4CCN(C(=O)OC(C)(C)C)CC4)cc3)cc21 [cpd 232, 4-{4-[(S)-1-(1-Ethyl-2-oxo-1,2-dihydro-[1,6]naphthyridin-7-ylamino)-ethyl]-benzyl}-piperazine-1-carboxylic acid tert-butyl ester] yielded a pIC50 [1] of 6.48.

C=CC(=O)N1CCN(Cc2ccc([C@H](C)Nc3ncc4ccc(=O)n(CC)c4n3)cc2)C[C@H]1C [cpd 208, 2-{[(1S)-1-(4-{[(3R)-4-acryloyl-3-methylpiperazin-1-yl]methyl}phenyl)ethyl]amino}-8-ethylpyrido[2,3-d]pyrimidin-7(8H)-one] was tested, and the pIC50 [1] was 6.67.

In the case of C=CC(=O)N1CCN(Cc2ccc([C@H](C)Nc3ncc4ccc(=O)n(CC)c4n3)cc2)[C@@H](C)C1 [cpd 210, 2-{[(1S)-1-(4-{[(2S)-4-acryloyl-2-methylpiperazin-1-yl]methyl}phenyl)ethyl]amino}-8-ethylpyrido[2,3-d]pyrimidin-7(8H)-one], the pIC50 [1] was 6.74.

Compound C=CC(=O)N1CC[C@@H](Oc2ccc([C@H](C)Nc3ncc4ccc(=O)n(CC)c4n3)cc2)C1 [cpd 223, 2-{[(1S)-1-(4-{[(3R)-1-acryloylpyrrolidin-3-yl]oxy}phenyl)ethyl]amino}-8-ethylpyrido[2,3-d]pyrimidin-7(8H)-one] has a pIC50 [1] of 5.78.

C=CC(=O)N1CCN(Cc2ccc([C@H](C)Nc3ncc4ccc(=O)n(CC)c4n3)cc2)C[C@@H]1C [cpd 211, 2-{[(1S)-1-(4-{[(3S)-4-acryloyl-3-methylpiperazin-1-yl]methyl}phenyl)ethyl]amino}-8-ethylpyrido[2,3-d]pyrimidin-7(8H)-one] was tested, and the pIC50 [1] was 6.28.
